From patent US10287265B2, “Enantiomers of 8-hydroxyquinoline derivatives and the synthesis thereof” (AVIDIN Co. Ltd., priority 2015, dated 2019)
Entries after “also recorded” stand apart in the source; their conditions may differ.

Assays:
[1] = tested on: HMOX-1 gene; assay: Gene expression in primary astrocytes by qRT-PCR; assay type: cell-based, rat; settings: 3 h, Example 2 at 330 nM and 1000 nM, PBT2 at 1000 nM
Experimental: (§1) Pure astrocyte culture was obtained from neonatal rats according to the protocol found in literature (Protocols for Neural Cell Culture 2001, pp 117-127. ch 9. Ruth Cole, Jean de Vellis. Preparation of Astrocyte, Oligodendrocyte, and Microglia Cultures from Primary Rat Cerebral Cultures). Astrocytes (1 million) were cultured in 100 mm TC-treated culture dishes (Orange Scientific, Belgium) in an incubator set at 37° C. and 5% CO2 with humid air. The R-enantiomeric derivative according to Example 2 was added to cells in two final concentrations: 330 nM and 1000 nM. Cells were also treated with 1000 nM PBT2 which bears the basic structure of the R-enantiomer according to Example 2 (8-hydroxy-quinoline ring) but contains conformational differences and was developed for the treatment of neurodegenerative disorders (Pub. No.: WO/2004/007461). Treatments were carried out with a 100 μM DMSO-based stock solution. Control cells were treated with the same amount of DMSO without the agent. Each treatment was conducted in three separate culture dishes. After treatment, cells were incubated at 37° C. for 3 h, then the medium was removed, cells were washed with PBS and total RNA was extracted from cells with the Accuzol™ Total RNA Extraction Solution (Bioneer, Daejeon, South Korea), according to the manufacturer's protocol. cDNA transcription was carried out with the High Capacity cDNA Reverse Transcription Kit (Life Technologies, Foster City, Calif., USA). During the test, the expression of four genes (PGK1, EPO, HMOX-1, VEGF) controlled by HIF1a was determined by qRT-PCR, with HPRT gene serving as a control. Relative expression of genes in treated samples was compared to untreated controls. The PCR was conducted with a LightCycler® Nano Instrument (Roche, Budapest, Hungary) in the presence of UPL (Universal Probe Library) probes (HPRT: 95, HMOX1: 4, EPO: 16, VEGF: 1, PGK1: 66), specific primers (HPRT1: 5′-gaccggttctgtcatgtcg-3′, HPRT2: 5′-[…]-3′; HMOX1-1: 5′-[…]-3′, HMOX1-2: 5′-ctgcagctcctcaaacagc-3′; EPO1: 5′-[…]-3′, EPO2: 5′-ccttctgcacagcccatt-3′; VEGF1: 5′-[…]-3′, VEGF2: 5′-[…]-3′; PGK1-1: 5′-[…]-3′, PGK1-2: 5′-gacttggctccattgtcca-3′) in 20 μl PCR reaction volume with 20 ng cDNA template and 10 μl Lightcycler DNA Probes Master (5×) Reagent Kit (Roche) according to the following protocol: activation of enzyme at 95° C. for 10 min, 50 cycles: denaturation at 95° C. for 15 sec, hybridization and polymerization, then detection at 60° C. for 30 sec.

[2] = tested on: VEGF gene; assay: Gene expression in primary astrocytes by qRT-PCR; assay type: cell-based, rat; settings: in the cells
Experimental: as §1

[3] = tested on: PGK1 gene; assay: Gene expression in primary astrocytes by qRT-PCR; assay type: cell-based, rat; settings: in the cells
Experimental: as §1

[4] = tested on: EPO gene; assay: Gene expression in primary astrocytes by qRT-PCR; assay type: cell-based, rat; settings: 3 h, Example 2 at 330 nM and 1000 nM, PBT2 at 1000 nM
Experimental: as §1

[5] = tested on: EPO gene; assay: Erythropoietin gene expression in hippocampus and cortex of aged animals, chronic treatment, qRT-PCR; assay type: in vivo, mouse; settings: 18-month-old C57BL/6 female mice, 20 mg/l in drinking water for four months
Experimental: Twenty-four 18-month-old C57BL/6 female mice (Innovo Ltd., Budapest, Hungary) were divided into two groups randomly: Group 1—untreated control, Group 2—treated with the R-enantiomer according to Example 2, administered in drinking water (20 mg/l) for four months. From both groups, 10-10 mice were sacrificed by CO2 inhalation. […]
To study gene expression, total RNA was extracted from the brain tissues with Accuzol™ Total RNA Extraction Solution (Bioneer, Daejeon, South Korea), according to the manufacturer's protocol. cDNA transcription was carried out with the High Capacity cDNA Reverse Transcription Kit (Life Technologies, Foster City, Calif., USA). Expression of the gene coding for erythropoietin, the EPO gene was determined by qRT-PCR (with HPRT gene serving as a control) with the method and instrument described in Example 33. but here, mouse-specific UPL probes (HPRT: 95, EPO: 16) and primer pairs were applied (mouse HPRT1: 5′-tcctcctcagaccgctttt-3′, mouse HPRT2: 5′-[…]-3′; mouse EPO1: 5′-[…]-3′, mouse EPO2: 5′-cttctgcacaacccatcgt-3′).

[6] = biological target: T1, human caspase 3 enzyme (Homo sapiens, UniProt P42574); assay: Caspase 3 peptidase activity, Ac-DEVD-AMC substrate, fluorescence; assay type: biochemical
T1 construct: host or cells: E. coli
T1 sequence (P42574 29-175 limits assumed): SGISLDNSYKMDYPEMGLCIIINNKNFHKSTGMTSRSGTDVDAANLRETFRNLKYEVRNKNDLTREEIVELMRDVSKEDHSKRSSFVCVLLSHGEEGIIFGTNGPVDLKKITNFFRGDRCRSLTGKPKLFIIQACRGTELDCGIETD
T1 sequence (P42574 176-277 limits assumed): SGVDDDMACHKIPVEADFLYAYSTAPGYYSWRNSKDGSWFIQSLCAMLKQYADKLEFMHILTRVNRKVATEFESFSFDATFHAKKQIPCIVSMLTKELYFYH
Experimental: Throughout the experiments, human caspase 3 enzyme produced in E. coli was used as previously described (Mittl PRE, Marco S D, Krebs J F, Karanewsky D S, Priestle J P, Tomaselli K J and Grutter M G (1997) Structure of Recombinant Human CPP32 in Complex with the Tetrapeptide Acetyl-Asp-Val-Ala-Asp Fluoromethyl Ketone. J Biol Chem. 272: 6539-6547). […] After the addition of […] Ac-DEVD-AMC substrate, the reaction ran for 60 min. The amount of generated AMC (7-amino-4-methylcoumarine), which gives information about the enzyme activity, was detected by fluorescence at 360/465 nm.

For `Cc1ccnc(N[C@H](c2ccc(C(F)(F)F)cc2)c2ccc3cccnc3c2O)n1` [Example 2, 7-[(R)-[(4-Methylpyrimidin-2-yl)amino][4-(trifluoromethyl)phenyl]methyl]quinolin-8-ol], the “activation of HMOX-1 gene expression” value [1] was “capable to increase the gene activity; also recorded: caused the induction of HMOX-1 in astrocytes; also recorded: dose-dependent and robust activation”, the “increase of VEGF gene activity” value [2] was “capable to increase the gene activity” and the “increase of PGK-1 gene activity” value [3] was “capable to increase the gene activity”. The “activation of EPO gene expression” value [4] was “capable to increase the gene activity; also recorded: highest inductive effect; also recorded: dose-dependent and robust activation”, the “EPO gene expression in hippocampus and cortex compared to untreated control mice” value [5] was “resulted increased EPO gene activity in cerebral cortex and hippocampus; also recorded: induced both hippocampal and cortical EPO expression” and the “inhibition of caspase-3 enzyme (concentration range in words)” value [6] was “inhibits in micromolar concentration”. The “reduction of the activity of caspase 3 enzyme” value ([6]; applied concentration of 10 μM) was 74%.
